In patent US4738982A, “HMG-CoA reductase inhibitors” (Merck & Co., Inc., priority 1986, dated 1988):

Target: T1, HMG-CoA reductase (Rattus norvegicus, UniProt P51639)
T1 sequence (P51639 1-887): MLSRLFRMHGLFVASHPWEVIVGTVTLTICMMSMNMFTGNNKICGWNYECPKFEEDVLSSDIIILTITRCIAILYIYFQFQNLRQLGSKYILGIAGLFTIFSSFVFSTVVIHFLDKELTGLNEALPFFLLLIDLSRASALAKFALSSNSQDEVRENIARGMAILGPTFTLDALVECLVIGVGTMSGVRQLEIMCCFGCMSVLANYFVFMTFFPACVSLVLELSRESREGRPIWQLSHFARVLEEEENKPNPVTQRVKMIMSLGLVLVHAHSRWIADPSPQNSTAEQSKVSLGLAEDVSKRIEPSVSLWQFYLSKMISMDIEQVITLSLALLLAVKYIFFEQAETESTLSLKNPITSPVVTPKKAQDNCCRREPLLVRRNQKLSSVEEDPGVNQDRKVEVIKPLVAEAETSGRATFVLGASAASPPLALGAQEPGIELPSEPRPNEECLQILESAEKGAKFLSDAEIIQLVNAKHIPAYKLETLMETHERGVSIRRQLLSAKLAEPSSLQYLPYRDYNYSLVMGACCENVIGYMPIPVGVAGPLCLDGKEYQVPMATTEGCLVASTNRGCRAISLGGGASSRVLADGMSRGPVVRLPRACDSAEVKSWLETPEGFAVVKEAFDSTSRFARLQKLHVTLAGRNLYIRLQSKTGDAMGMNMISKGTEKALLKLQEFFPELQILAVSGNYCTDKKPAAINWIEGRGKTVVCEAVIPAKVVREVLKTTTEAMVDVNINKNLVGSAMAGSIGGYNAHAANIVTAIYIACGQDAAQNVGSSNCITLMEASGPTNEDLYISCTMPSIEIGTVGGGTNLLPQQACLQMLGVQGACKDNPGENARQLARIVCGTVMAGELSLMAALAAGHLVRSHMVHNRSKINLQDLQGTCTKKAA
Assay: intrinsic HMG-CoA reductase inhibition, in vitro protocol of J. Med. Chem., 1985, 28, page 347
Assay type: biochemical
Conditions: in vitro protocol described in J. Med. Chem., 1985, 28, page 347
Procedure: The intrinsic HMG-CoA reductase inhibition activity of the claimed compounds is measured in the in vitro protocol described is J. Med. Chem., 1985, 28, page 347.

IC50: 547 nM
SMILES: CC[C@H](C)C(=O)O[C@H]1C[C@@H](C)CC2=CC(O)[C@H](C)C(CC[C@@H](O)C[C@@H](O)CC(=O)O)=C21 (stereo partly shown)
